In this assay the target is T1, mouse VISTA (mVISTA) (Mus musculus, UniProt Q9D659).
T1 construct: expressed in transfected cells; host or cells: Human embryonic kidney 293T cells
T1 sequence (Q9D659 33-308): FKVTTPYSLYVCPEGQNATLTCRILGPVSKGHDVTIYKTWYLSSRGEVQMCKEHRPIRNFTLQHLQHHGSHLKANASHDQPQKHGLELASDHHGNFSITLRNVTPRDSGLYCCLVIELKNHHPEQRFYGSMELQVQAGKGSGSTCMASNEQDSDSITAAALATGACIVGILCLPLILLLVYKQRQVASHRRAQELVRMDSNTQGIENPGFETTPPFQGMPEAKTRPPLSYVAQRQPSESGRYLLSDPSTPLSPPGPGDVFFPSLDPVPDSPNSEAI
The assay is described as follows: Cell-Based Binding High-Content Assay For mVISTA (HC CBA mVISTA). The method in brief: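 Read-out: Alexa 647–streptavidin signal imaged on fixed, Hoechst-stained mVISTA-293T cells, with IC50 taken from a four-parameter logistic curve. Compounds competed with 2 nM biotinylated peptide for 30 min at room temperature, tested under both no-wash and wash (1 h compound, media exchange, 1 h) formats.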

[1] abbreviates: 293T cells expressing mouse VISTA, competition with biotinylated peptide (2 nM), read-out: HC CBA mVISTA IC50.

Each structure is given as a SMILES string. pIC50: −log10 of the molar value. Where two headings read alike, the source gives them in different places. Starred links: 1 amine or outer side, 2 acyl side, 3 side chain; linkers in the order of their positions; H or OH if unused. Positions of bridges follow the written chain, without caps; N, C: chain ends. Non-standard residues stand in square brackets, D forms with d. Residues, ends and D or L forms follow the SMILES beside them. Phe(3-Me) = Cc1cccc(C[C@H](N)C(=O)O)c1; γGlu = O=C(O)[C@H](CCC(=O)[*:2])N[*:1]; 2Nal = N[C@@H](Cc1ccc2ccccc2c1)C(=O)O; βAsp = O=C(O)[C@H](CC(=O)[*:2])N[*:1]; Cit = NC(=O)NCCC[C@H](N)C(=O)O; NMeL = CN[C@@H](CC(C)C)C(=O)O; Ahp(2) = CCCCC[C@H](N)C(=O)O; NMeNle = CCCC[C@H](NC)C(=O)O; Tle = CC(C)(C)[C@H](N)C(=O)O; NMeS = CN[C@@H](CO)C(=O)O; NHexGly = CCCCCCNCC(=O)O; Nle = CCCC[C@H](N)C(=O)O; Orn = NCCC[C@H](N)C(=O)O; Aun = NCCCCCCCCCCC(=O)O; Dap = NC[C@H](N)C(=O)O; AEEA = NCCOCCOCC(=O)O

The term pIC50 denotes −log10 of the IC50, conventionally taken in molar units. In the case of `CCCCCCN1CC(=O)N[C@@H](Cc2ccc(O)cc2)C(=O)N[C@@H](CCCC)C(=O)N[C@@H](CC(N)=O)C(=O)N[C@@H](CCCNC(=N)N)C(=O)N(C)[C@@H](CCCC)C(=O)N[C@@H](CCCCC)C(=O)N2CCC[C@H]2C(=O)N[C@@H](C(C)C)C(=O)N[C@@H](CC(=O)O)C(=O)N[C@H](C(=O)N[C@@H](CN)C(=O)N[C@@H](CC(N)=O)C(=O)O)CSCC(=O)N[C@@H](Cc2ccc3ccccc3c2)C(=O)N[C@@H](Cc2c[nH]c3ccccc23)C(=O)N[C@@H](CC(=O)O)C1=O` [compound 1136] ({CH2CO}-[2Nal]WD[NHexGly]Y[Nle]NR[NMeNle][Ahp(2)]PVDC[Dap]N-OH; thioether N-14), under “read-out: HC CBA mVISTA IC50”, the pIC50 was 8.02.
For the compound `CCCCCCN1CC(=O)N[C@@H](Cc2ccc(O)cc2)C(=O)N[C@@H](CCCC)C(=O)N[C@@H](CC(N)=O)C(=O)N[C@@H](CCCNC(=N)N)C(=O)N(C)[C@@H](CCCC)C(=O)N[C@@H](CCCCC)C(=O)N2CCC[C@H]2C(=O)N[C@@H](C(C)C)C(=O)N[C@@H](CC(=O)O)C(=O)N[C@H](C(=O)NCCOCCOCC(=O)N[C@@H](CC(=O)O)C(=O)NCCOCCOCC(=O)NCCCCCCCCCCC(=O)O)CSCC(=O)N[C@@H](Cc2ccc3ccccc3c2)C(=O)N[C@@H](Cc2c[nH]c3ccccc23)C(=O)N[C@@H](CC(=O)O)C1=O` (stereo in doubt) [compound 2290], the pIC50 (cell-based binding high-content assay, read-out: HC CBA miPrISTA IC50) was 7.41.
As for `CCCCCCN1CC(=O)N[C@@H](Cc2ccc(O)cc2)C(=O)N[C@@H](CCCC)C(=O)N[C@@H](CC(N)=O)C(=O)N[C@@H](CCCNC(=N)N)C(=O)N(C)[C@@H](CCCC)C(=O)N[C@@H](CCCCC)C(=O)N2CCC[C@H]2C(=O)N[C@@H](C(C)C)C(=O)N[C@@H](CC(=O)O)C(=O)N[C@H](C(=O)NCC(=O)O)CSCC(=O)N[C@@H](Cc2ccc3ccccc3c2)C(=O)N[C@@H](Cc2cccc(C)c2)C(=O)N[C@@H](CC(=O)O)C1=O` [compound 1200] ({CH2CO}-[2Nal][Phe(3-Me)]D[NHexGly]Y[Nle]NR[NMeNle][Ahp(2)]PVDCG-OH; thioether N-14), the negative-log IC50 (pIC50) (read-out: HC CBA mVISTA IC50) was 7.35.
With `CCCCCCN1CC(=O)N[C@@H](Cc2ccc(O)cc2)C(=O)N[C@@H](CC(C)C)C(=O)N[C@@H](CC(N)=O)C(=O)N[C@@H](CCCNC(=N)N)C(=O)N(C)[C@@H](CC(C)C)C(=O)N[C@@H](CCCCC)C(=O)N2CCC[C@H]2C(=O)N[C@@H](C(C)(C)C)C(=O)N[C@@H](CO)C(=O)N[C@H](C(=O)N[C@@H](CC(=O)NCCOCCOCC(=O)N[C@@H](CC(=O)O)C(=O)NCCOCCOCC(=O)NCCCCCCCCCCC(=O)O)C(=O)O)CSCC(=O)N[C@@H](Cc2ccccc2)C(=O)N[C@@H](Cc2ccc(O)cc2)C(=O)N[C@@H](CC(=O)O)C1=O` [compound 2031] ({CH2CO}-FYD[NHexGly]YLNR[NMeL][Ahp(2)]P[Tle]SC[βAsp][AEEA]D[AEEA][Aun]-OH; thioether N-14), the pIC50 (cell-based binding high-content assay, mVISTA, read-out: HC CBA miPr ISTA IC50) is 7.84.
As for `CCCCCCN1CC(=O)N[C@@H](Cc2ccc(O)cc2)C(=O)N[C@@H](CCCCC)C(=O)N[C@@H](CC(N)=O)C(=O)N[C@@H](CCCNC(=N)N)C(=O)N[C@@H](CC(C)C)C(=O)N[C@@H](CCCCC)C(=O)N2CCC[C@H]2C(=O)N[C@@H](C(C)C)C(=O)N[C@@H](CO)C(=O)N[C@H](C(=O)N[C@@H](CCC(=O)NCCCCCCCCCCC(=O)O)C(=O)O)CSCC(=O)N[C@@H](Cc2ccccc2)C(=O)N[C@@H](Cc2ccc(O)cc2)C(=O)N[C@@H](CC(=O)O)C1=O` [Example 2340] ({CH2CO}-FYD[NHexGly]Y[Ahp(2)]NRL[Ahp(2)]PVSC[γGlu][Aun]-OH; thioether N-14), the pIC50 (read-out: HC CBA mVISTA IC50) was 7.72.
Regarding `CCCCCCN1CC(=O)N[C@@H](Cc2ccc(O)cc2)C(=O)N[C@@H](CCCC)C(=O)N[C@@H](CC(=O)O)C(=O)N[C@@H](CCCNC(N)=O)C(=O)N(C)[C@@H](CCCC)C(=O)N[C@@H](CCCCC)C(=O)N2CCC[C@H]2C(=O)N[C@@H](C(C)C)C(=O)N[C@@H](CC(=O)O)C(=O)N[C@H](C(=O)N[C@@H](CC(=O)O)C(N)=O)CSCC(=O)N[C@@H](Cc2cccc(C)c2)C(=O)N[C@@H](Cc2ccc(O)cc2)C(=O)N[C@@H](CC(=O)O)C1=O` [compound 1447] ({CH2CO}-[Phe(3-Me)]YD[NHexGly]Y[Nle]D[Cit][NMeNle][Ahp(2)]PVDCD-NH2; thioether N-14), where the note is “the 19th table, scaffold drawing 22, read-out: HC CBA mVISTA IC50”, the pIC50 was 7.82.
Consider `CCCCCCN1CC(=O)N[C@@H](Cc2ccc(O)cc2)C(=O)N[C@@H](CC(C)C)C(=O)N[C@@H](CC(N)=O)C(=O)N[C@@H](CCCNC(=N)N)C(=O)N(C)[C@@H](CC(C)C)C(=O)N[C@@H](CCCCC)C(=O)N2CCC[C@H]2C(=O)N[C@@H](C(C)(C)C)C(=O)N[C@@H](CO)C(=O)N[C@H](C(=O)N[C@@H](CCC(=O)NCCCCCCCCCCC(=O)O)C(=O)O)CSCC(=O)N[C@@H](Cc2ccccc2)C(=O)N[C@@H](Cc2ccc(O)cc2)C(=O)N[C@@H](CC(=O)O)C1=O` [Example 2135] ({CH2CO}-FYD[NHexGly]YLNR[NMeL][Ahp(2)]P[Tle]SC[γGlu][Aun]-OH; thioether N-14), for which, under “read-out: HC CBA mVISTA IC50”, the pIC50 was 7.51.
With `CCCCCCN1CC(=O)N[C@@H](Cc2ccc(O)cc2)C(=O)N[C@@H](CC(C)C)C(=O)N[C@@H](CC(N)=O)C(=O)N[C@@H](CCCNC(=N)N)C(=O)N(C)[C@@H](CCCC)C(=O)N[C@@H](CCCCC)C(=O)N2CCC[C@H]2C(=O)N[C@@H](C(C)(C)C)C(=O)N[C@@H](C(C)C)C(=O)N[C@H](C(=O)NCCOCCOCC(=O)N[C@@H](CCC(=O)NCCOCCOCC(=O)NCCCCCCCCCCC(=O)O)C(=O)O)CSCC(=O)N[C@@H](Cc2ccccc2)C(=O)N[C@@H](Cc2ccc(O)cc2)C(=O)N[C@@H](CC(=O)O)C1=O` [compound 2277] ({CH2CO}-FYD[NHexGly]YLNR[NMeNle][Ahp(2)]P[Tle]VC[AEEA][γGlu][AEEA][Aun]-OH; thioether N-14), the pIC50 (read-out: HC CBA mVISTA IC50) was 7.67.
As to `CCCCCCN1CC(=O)N[C@@H](Cc2ccc(O)cc2)C(=O)N[C@@H](CCCCC)C(=O)N[C@@H](CC(=O)O)C(=O)N[C@@H](CCCNC(=N)N)C(=O)N[C@@H](CC(C)C)C(=O)N[C@@H](CCCCC)C(=O)N2CCC[C@H]2C(=O)N[C@@H](C(C)C)C(=O)N[C@@H](CC(=O)O)C(=O)N[C@H](C(=O)N[C@@H](CCC(=O)O)C(N)=O)CSCC(=O)N[C@@H](Cc2ccccc2)C(=O)N[C@@H](Cc2ccc(O)cc2)C(=O)N[C@@H](CC(=O)O)C1=O` [Example 1004] ({CH2CO}-FYD[NHexGly]Y[Ahp(2)]DRL[Ahp(2)]PVDCE-NH2; thioether N-14), under setting [1], the pIC50 was 7.89.
For the compound `CCCCCCN1CC(=O)N[C@@H](Cc2ccc(O)cc2)C(=O)N[C@@H](CC(C)C)C(=O)N[C@@H](CC(N)=O)C(=O)N[C@@H](CCCNC(=N)N)C(=O)N(C)[C@@H](CO)C(=O)N[C@@H](CCCCC)C(=O)N2CCC[C@H]2C(=O)N[C@@H](C(C)(C)C)C(=O)N[C@@H](CO)C(=O)N[C@H](C(=O)NCCOCCOCC(=O)N[C@@H](CCC(=O)NCCOCCOCC(=O)NCCCCCCCCCCC(=O)O)C(=O)O)CSCC(=O)N[C@@H](Cc2ccccc2)C(=O)N[C@@H](Cc2ccc(O)cc2)C(=O)N[C@@H](CC(=O)O)C1=O` [compound 2262] ({CH2CO}-FYD[NHexGly]YLNR[NMeS][Ahp(2)]P[Tle]SC[AEEA][γGlu][AEEA][Aun]-OH; thioether N-14), under “read-out: HC CBA mVISTA IC50”, the pIC50 was 7.40.
Consider `CCCCCCN1CC(=O)N[C@@H](Cc2ccc(O)cc2)C(=O)N[C@@H](CCCC)C(=O)N[C@@H](CC(=O)O)C(=O)N[C@@H](CCCN)C(=O)N[C@@H](CC(C)C)C(=O)N[C@@H](CCCCC)C(=O)N2CCC[C@H]2C(=O)N[C@@H](C(C)C)C(=O)N[C@@H](CO)C(=O)N[C@H](C(=O)NCC(N)=O)CSCC(=O)N[C@@H](Cc2ccccc2)C(=O)N[C@@H](Cc2ccc(O)cc2)C(=O)N[C@@H](CC(=O)O)C1=O` [Example 1048] ({CH2CO}-FYD[NHexGly]Y[Nle]D[Orn]L[Ahp(2)]PVSCG-NH2; thioether N-14), for which the pIC50 under setting [1] is 7.65.

The record behind these values is patent US20240218022A1, “ANTI-VISTA MACROCYCLIC PEPTIDES AND COMPOSITIONS” (BRISTOL-MYERS SQUIBB COMPANY, priority 2022, published 2024).
